Data on twelve compounds can be found in patent US6617361B2, “Behavior chemotherapy” (Be Able, LLC, priority 1999, dated 2003).

Where a name gives a salt, the structure may show the parent alone.

One data set concerns Patient five. Description: Protocol and results with patient five (severe obesity). Type of data set: in vivo, human. Particulars: for body weight reported by phone: combination Adipex-P 37.5 mg one-half b.i.d. + Celexa 20 mg one-half MWF + Adalat 30 + Aricept + Nutrimed three times daily, from 264¼ lb; for body weight: December 1997, combination Ionamin 30 mg + fenfluramine 20 mg + Zoloft 25 mg q.d. since August 1995, start in excess of 350 lb. The source says:
This person has been a patient in this practice for many years. Their medical problems are extremely long-lived and include chronic depression, severe obesity, hypertension, stasis dermatitis, and venous insufficiency of the lower extremities, and seborrhea.
In addition they were taking Lasix, Zaroxolyn and potassium for the control of their severe edema and leg pain. They were also using the CPAP machine.
At their insistence Meridia and Adalat were attempted. […] To augment the weight loss the patient was started on Nutrimed three times daily plus a regular dinner.

The next data set relates to Patient two. Description: Protocol and results with patient two (leg pain, absence of energy). Particulars: for body weight: August 1999, from 143 lb November 1998, Celexa 10 mg + Adipex-P 37.5 one-half (+ atenolol 25 mg), later with Aricept 1.25 mg three times weekly; for weight reduction / leg aches: Celexa + Adipex-P + Aricept (atenolol at first); for weight reduction: November 1998 to August 1999; for leg aches: by August 1999. It is filed as in vivo, human. The protocol:
First evaluated this 5′4″, ectomorphic, single person who was […] at the time.
On Nov. […] They were started on Celexa 10 mg, Adipex-P 37.5 one-half tablet, and atenolol 25 mg all in the morning.
They will keep in touch with me as they will take each instruction for four doses and then go to the next.

Data set [1] concerns Patient six. Description: Protocol and results with patient six, Example 12 (thalamic pain syndrome, ethanol use). Particulars: for body weight change: approximately five weeks into therapy, combination Adipex-P + fenfluramine + Celexa + Nutrimed; for energy level / pain as described by patient: combination Adipex-P 37.5 one-half b.i.d. + fenfluramine 10 mg + Celexa 10 mg + Nutrimed three times daily (+ atenolol 25 mg); for alcohol withdrawal phenomena: combination Adipex-P 37.5 one-half b.i.d. + fenfluramine 10 mg + Celexa 10 mg + Nutrimed three times daily + Librium 30 mg (three days) + atenolol 25 mg; for outcome of earlier trials for thalamic pain syndrome: before the protocol. The protocol:
Person with sudden onset of numbness right side of body in Guyana 1973. […] Diagnosis was thalamic pain syndrome.
Other medical problems: borderline hypertension, obesity secondary to ETOH, hemorrhoids, and remote short-lived cigarette smoking.
At the time therapy started the patient was taking either hydrocodone/APAPE 7.5/500 as needed or Percocet. […] Therapy was started with Adipex-P 37.5 one-half p.o. bid., fenfluramine 10 mg p.o. q.a.m., Celexa 10 mg p.o. q.a.m., Nutrimed three times daily plus dinner for nutritional support (Nutrimed is a high protein, low carbohydrate semi-starvation fast), Librium 30 mg q.d. because of the discontinuation of alcohol, atenolol 25 mg q.a.m. Treatment started July 1999.
By mid-August, approximately five weeks into therapy, the patient was still on Nutrimed and Adipex but the fenfluramine was diminished to one-quarter of a pill or 5 mg. The atenolol was discontinued and the patient was encouraged to exercise.

Another data set relates to Patient three. As to the kind of experiment: Protocol and results with patient three (chronic fatigue). To be noted: for side effect noted by patient: combination reduced to Adipex-P 37.5 one-half, Celexa one-quarter, Aricept one-quarter, fenfluramine one-quarter pill q.a.m.; for patient-reported status: within two days, combination Adipex-P 37.5 mg one-half b.i.d. + Celexa 10 mg q.d. + fenfluramine 10 mg q.d. + Aricept one-half q.d. The source says:
Longstanding patient in my practice who […] developed a viral illness followed by chronic fatigue. This problem persisted, numerous evaluations and consultations were obtained, in excess of 20 physicians were consulted, and the patient was followed for nine months in a major medical center with the diagnosis of chronic Lyme disease. Prior to this their symptoms included a compendium of mild lifelong autonomic dysfunction including chronic bladder and urethral problems which necessitated urological surgery in the distant past. They had not retired from work but had taken long leaves of absence and found it difficult to keep up their normal work schedule as a social worker, something they had done for many years. In the past for their autonomic dysfunction they had been placed on Depakote, Wellbutrin, and amitriptyline and they were on this when they became ill.
Their other medical problems included mitral valve prolapse with click and no murmur but no symptoms, a history of endometriosis, occasional kidney stones, and an ovarian cyst.
Therapy was begun on May 26, 1999. On Jun. […] They were still on 12.5 mg of Elavil or one-half pill and some minocin for acne, Wellbutrin from their psychiatrist, and Zithromax, an antibiotic started by other physicians for the treatment of Lyme disease. This is something that I advised them to discontinue, but they continued because of the concerns of the diagnosis.

In a further data set the test system is Patient four. Description: Protocol and results with patient four (morbid obesity, cardiomyopathy). Particulars: for cardiac index remeasured / body weight the next month: combination Adipex-P 37.5 one-half + Zoloft 25 mg + Aricept 1.25 mg + fenfluramine 5 mg (+ atenolol 12.5 mg); for body weight the next month: from 235 lb June 1999. Type of data set: in vivo, human. The protocol:
This person has been in the practice for several years. Their medical problems surround a cardiomyopathy with a low cardiac output state and heart failure. They also have a history of hypertension, hypothyroidism on therapy, and morbid obesity.
Medication alterations continued over the next several months with increasing Ionamin to 30 mg. Hytrin was added at 2 mg because of prostatic symptoms and in November Pondimin was added.
Adipex-P 37.5 one-half was added to their medications. […]

Data set [2] relates to Patient six. Description: Protocol and results with patient six, Example 10 (fibromyalgia, obesity). To be noted: for weight lost on therapy to date: Ionamin + fenfluramine (until 1996) + Zoloft from December 1995, Aricept from August 1998; for overall condition: over three years from December 1995, combination Ionamin 30 mg + fenfluramine 20 mg + Zoloft 25 mg, fenfluramine discontinued 1996; for body weight: July 1999. It is filed as in vivo, human. The source says: This longstanding patient was first seen in 1988 for fibromyalgia. They are also bothered by chronic low back pain, mitral valve prolapse, sleep disturbance, a family history of coronary disease, and obesity. They are 5′8″ tall, 205½ lb. […] Their problem list contained the additional diagnoses of GERD, carpal tunnel syndrome, suspected mitral valve prolapse, and acne rosacea.
Their medication list included Synthroid, Estratest, Klonopin, Prilosec, Limbitrol, Provera, Premarin and Zostrix cream. […] They frequented health food stores, as well as chiropractors for relief.
Although greatly fearful of potential long-term problems, the patient finally agreed to the institution of a change in their medications and started therapy which was a major change in their medicines December 1995. […] At that time the patient's weight was in the mid 180s. Their other medications were continued.
This was an independent patient-initiated decision.

Another data set relates to Patient one. Description: Protocol and results with patient one (cigarette smoking). To be noted: January 1998; Ionamin 15 mg + Prozac 10 mg MWF (+ Estratest, occasional Tranxene).
[3] abbreviates: July 1997, combination Ionamin 30 mg + Zoloft 25 + Pondimin.
Where [4] appears, read: November, Ionamin (15 then 30 mg) + Zoloft 25 since April 1996, before Pondimin, not decreasing, averaging 237 lb before.
The mark [5] stands for this setting: current medication includes Ionamin 15 mg q.a.m. and Aricept one-quarter pill MWF.

From the text for Patient one: In addition, they were started on the moderate dose of the patch.

As to `CN(C)CCCC1(c2ccc(F)cc2)OCc2cc(C#N)ccc21` (stereo not shown) [Celexa, citalopram], the body weight reported by phone in the data set with Patient five is about 240 lb. For the same compound, in the data set with Patient two, the body weight worked out at 127 lb and the weight reduction was 12.5%.

In the case of “hydrocodone/APAPE [hydrocodone/APAPE 7.5/500]”, the effect on pain entry in the data set on Patient six [1] (taken as needed at the time therapy started) is reported as “not effective”.

Turning to `CCNC(C)Cc1cccc(C(F)(F)F)c1` (stereo not shown) [fenfluramine], in the data set with Patient three, the “side effect noted by patient” value is “some difficulty sleeping” and the patient-reported status result was “life had been transformed back towards its normal status”. The body weight in the data set on Patient five is 245 lb. In the data set with Patient four (setting [3]), the body weight came to 217 lb and the “cardiac output by echocardiography” value was “improved”. For the same compound, in the data set on Patient four, the cardiac index remeasured entry was “even more improved than previously” and the “body weight the next month” value is 218. Further, in the data set on Patient six [2], the “weight lost on therapy to date” value is recorded as “approximately 25 lb” and the overall condition entry is reported as “greatly improved”. Also, in the data set with Patient six [1], the body weight change result is recorded as “marked weight loss”, the energy level result is on record as “marked improvement in energy level”, the “pain as described by patient” value is “markedly diminished” and the alcohol withdrawal phenomena entry is reported as “no withdrawal phenomena”.

In the case of `NC(=O)N1c2ccccc2C=Cc2ccccc21` [Tegretol], in the data set on Patient six [1], the “outcome of earlier trials for thalamic pain syndrome” value (shortened to “outcome of earlier trials”) is given as “no help”.

Regarding `CNC1=Nc2ccc(Cl)cc2C(c2ccccc2)=[N+]([O-])C1` [Librium], the side effect result with Patient six [1] (30 mg q.d., discontinued by day three) is recorded as “mild sleepiness”. In addition, the alcohol withdrawal phenomena entry with Patient six [1] was “no withdrawal phenomena”.

`CN[C@H]1CC[C@@H](c2ccc(Cl)c(Cl)c2)c2ccccc21` [Zoloft, sertraline HCl]: the body weight in the data set on Patient five is recorded as 245 lb. Besides, in the data set on Patient four (setting [3]), the “cardiac output by echocardiography” value is given as “improved”. In addition, in the data set with Patient four (setting [4]), the body weight is listed as 230 lb. In addition, in the data set on Patient six [2], the “weight lost on therapy to date” value is listed as “approximately 25 lb” and the overall condition entry is listed as “greatly improved”.

On to `CC(C)(N)Cc1ccccc1` [Adipex-P, phentermine], for which, in the data set with Patient three, the “side effect noted by patient” value was “some difficulty sleeping” and the patient-reported status result is given as “life had been transformed back towards its normal status”. In addition, in the data set on Patient five, the body weight turned out to be 245 lb and the body weight reported by phone was about 240 lb. Moreover, the “improvement (weight, fatigue)” value in the data set on Patient four (Adipex-P 37.5 one-half + Celexa 10 mg twice weekly + Aricept one-quarter pill MWF, in the absence of fenfluramine) was “essentially no improvement”. In the data set with Patient four (setting [3]), the body weight is on record as 217 lb and the “cardiac output by echocardiography” value is recorded as “improved”. Moreover, the body weight in the data set with Patient four (setting [4]) came to 230 lb. Also, in the data set on Patient four, the cardiac index remeasured entry is “even more improved than previously” and the “body weight the next month” value worked out at 218. In the data set with Patient six [2], the “weight lost on therapy to date” value is listed as “approximately 25 lb” and the overall condition entry was “greatly improved”. Moreover, in the data set with Patient six [2] (setting [5]), the body weight stood at 161 lb and the “chronic fatigue remaining, of its original” value was about 20%. In addition, in the data set on Patient two, the body weight stood at 127 lb, the weight reduction turned out to be 12.5% and the leg aches result is “resolution of their leg aches”. Moreover, in the data set with Patient six [1], the body weight change result is recorded as “marked weight loss”, the energy level result is given as “marked improvement in energy level”, the “pain as described by patient” value is reported as “markedly diminished” and the alcohol withdrawal phenomena entry is listed as “no withdrawal phenomena”. In addition, in the data set with Patient one, the body weight was determined as 119 lb and the smoking status result is given as “not smoking”.

Regarding `O=C1NC(=O)C(c2ccccc2)(c2ccccc2)N1` [Dilantin], the “outcome of earlier trials” value with Patient six [1] is listed as “no help”.

Consider `CN(C)CCC=C1c2ccccc2CCc2ccccc21` [Elavil], for which, in the data set on Patient six [1], the “outcome of earlier trials” value is given as “no help”.

Regarding `NCC1(CC(=O)O)CCCCC1` [Neurontin], the “outcome of earlier trials” value in the data set on Patient six [1] is “no help”.

Consider `CNCCC(Oc1ccc(C(F)(F)F)cc1)c1ccccc1` (stereo not shown) [Prozac, fluoxetine HCl], for which, in the data set with Patient one, the body weight is reported as 119 lb and the smoking status result is listed as “not smoking”.

Regarding `COc1cc2c(cc1OC)C(=O)C(CC1CCN(Cc3ccccc3)CC1)C2` (stereo not shown) [Aricept, donepezil], in the data set with Patient six [2] (Aricept 2.5 mg Monday, Wednesday, Friday added August 1998 to ongoing therapy), the “patient-reported status after addition” value was “felt much better”. For the same compound, the “weight lost on therapy to date” value in the data set with Patient six [2] is “approximately 25 lb”. In the data set on Patient six [2] (setting [5]), this compound had a body weight of 161 lb. In addition, in the data set on Patient two, the weight reduction worked out at 12.5% and the leg aches entry is “resolution of their leg aches”.
